Laboratory results reported in US20240208961A1, “EIF4E INHIBITORS AND USES THEREOF” (PIC Therapeutics, Inc., priority 2022, published 2024).
Where two headings read alike, the source gives them in different places.

Test: Pharmacokinetic study of I-11 in female BALB/c mice (Example 4)
Type: in vivo, Balb/c mouse
Conditions: mouse, plasma; for concentration at 0.25 hr / concentration at 0.5 hr / concentration at 1 hr / concentration at 2 hr / concentration at 4 hr / concentration at 8 hr / concentration at 24 hr / concentration at 0.083 hr: female, BALB/c, po
Description: Pharmacokinetic Study in Female BALB/c Mice: Balb/c mouse, 17-19 g, 8-10 weeks, female, N=27, purchased from JH Laboratory Animal Co. LTD
Fasted overnight and fed at 4 hr post dosing.
Animals dosed with sampling at 0.083, 0.25, 0.5, 1, 2, 4, 8, 24 hr post dose. 8 time points. Semi-serial bleeding for plasma only. The animals were restrained manually at the designated time points. Approx. 110 μL of blood/time point was taken from the animals via facial vein into tubes with K2EDTA. Blood sample was centrifuged at 4° C. (2000 g, 5 min) to obtain plasma within 15 m after sample collection. Put on wet ice, then plasma samples were stored at approximately −70° C. until analysis.
For oral gavage, compound was dosed as a suspension in […] carboxymethyl cellulose (CMC), 0.2% Tween 80 in water. Compound was orally dosed at 50 mg/Kg, at 100 mg/Kg.
For IV dosing, compound was dissolved into a solution of […], […] HS 15 and 90% Saline. Compound was IV dosed at 5 mg/Kg.
Plasma samples were analyzed for I-11 using LC-MS using a calibration curve of known concentrations.
FIG. 1 describes the mean plasma concentration-time profiles of I-11 after single IV dose of 5 mg/kg, PO dose of 50 mg/kg and 100 mg/kg in female Balb/c mice (N=3/time point). • Note: • 1. […] The IV dosing solutions were prepared in 5% DMSO+5% Solutol HS15+90% Saline. The PO dosing solutions were prepared in 1% CMC-Na+0.2% Tween 80 in water. • 3. BQL=Below quantifiable limit of 3.00 ng/mL for I-11 in female Balb/c mouse plasma samples. • 4. PK parameters were estimated by non-compartmental model using WinNonlin 8.2. If the adjusted rsq (linear regression coefficient of the concentration value on the terminal phase) is less than 0.9, T1/2 might not be accurately estimated. • 5. F value was determined by the following equation: • If AUClast/AUCINF>80%:
F=(AUCINF-EX×DOSEIV)/(AUCINF-IV×DOSEEX)[…] • If AUClast/AUCINF<80% or AUCINF not available:
F=([…])/(AUClast-IV×DOSEEX)[…] • 6. NA: Not available.

[1] = 50 mg/kg, PO 50 mg/kg, read-out: Plasma concentration Mean
[2] = 50 mg/kg, PO 50 mg/kg, read-out: Plasma concentration Individual
[3] = 100 mg/kg, PO 100 mg/kg, read-out: Plasma concentration Individual
[4] = 100 mg/kg, PO 100 mg/kg, read-out: Plasma concentration Mean

concentration at 0.25 hr [1]: 1760 ng/mL
concentration at 0.5 hr [2]: 3830 ng/mL
concentration at 0.5 hr [1]: 5850 ng/mL
concentration at 1 hr [2]: 8760 ng/mL
concentration at 1 hr [1]: 7120 ng/mL
concentration at 2 hr [2]: 7260 ng/mL
concentration at 2 hr [1]: 6310 ng/mL
concentration at 4 hr [2]: 1170 ng/mL
concentration at 4 hr [1]: 1730 ng/mL
concentration at 8 hr [2]: 367 ng/mL
concentration at 8 hr [1]: 314 ng/mL
concentration at 24 hr (50 mg/kg, PO 50 mg/kg): 83.3 ng/mL
concentration at 0.083 hr [3]: 188 ng/mL
concentration at 0.083 hr [4]: 246 ng/mL
concentration at 0.25 hr [3]: 2690 ng/mL
concentration at 0.25 hr [4]: 2790 ng/mL
concentration at 0.5 hr [4]: 7820 ng/mL
concentration at 1 hr [3]: 8840 ng/mL
concentration at 1 hr [4]: 7530 ng/mL
concentration at 2 hr [3]: 18600 ng/mL
concentration at 2 hr [4]: 15000 ng/mL
concentration at 4 hr [4]: 8190 ng/mL
concentration at 8 hr [4]: 633 ng/mL
concentration at 24 hr (100 mg/kg, PO 100 mg/kg): 60.8 ng/mL
AUC(0-inf) (IV 5 mg/kg): 5280 ng·h/mL
AUC(0-t) (IV 5 mg/kg): 5220 ng·h/mL
C0 (IV 5 mg/kg): 13600 ng/mL
MRT inf (IV 5 mg/kg): 0.73 h
MRT last (IV 5 mg/kg): 0.594 h
half-life (IV 5 mg/kg): 137 min
Vd (IV 5 mg/kg, read-out: Vss): 0.69 L/kg
AUC(0-inf) (PO 50 mg/kg): 26900 ng·h/mL
AUC(0-t) (PO 50 mg/kg): 26400 ng·h/mL
Cmax (PO 50 mg/kg): 7120 ng/mL
MRT inf (PO 50 mg/kg): 3.79 h
MRT last (PO 50 mg/kg): 3.31 h
Tmax (PO 50 mg/kg): 1 h
half-life (PO 50 mg/kg): 243 min
AUC(0-inf) (PO 100 mg/kg): 63400 ng·h/mL
AUC(0-t) (PO 100 mg/kg): 63100 ng·h/mL
Cmax (PO 100 mg/kg): 15000 ng/mL
MRT inf (PO 100 mg/kg): 3.49 h
MRT last (PO 100 mg/kg): 3.37 h
Tmax (PO 100 mg/kg): 2 h
half-life (PO 100 mg/kg): 191 min
SMILES: CC(C)Cc1sc(Nc2ncc(-c3cccs3)cc2C(=O)O)nc1C(C)(C)C [Compound I-11]
